We go through 13 molecules from patent US20260126455A1, “Methods and Dosing Regimens for Preventing or Delaying Onset of Alzheimer's Disease and Other Forms of Dementia and Mild Cognitive Impairment” (priority 2020, published 2026).

Values joined by “and” are separate entries in the source; they are usually repeats but may differ in a detail not shown here. Equal values may be shown once. Read-outs that look alike come from different tables or passages of the source.

The target in data set [1] is 5HT6 receptor (Homo sapiens, UniProt P50406). As to conditions: in vivo; cited from earlier work.
5HT6 receptor, sequence (P50406 whole entry): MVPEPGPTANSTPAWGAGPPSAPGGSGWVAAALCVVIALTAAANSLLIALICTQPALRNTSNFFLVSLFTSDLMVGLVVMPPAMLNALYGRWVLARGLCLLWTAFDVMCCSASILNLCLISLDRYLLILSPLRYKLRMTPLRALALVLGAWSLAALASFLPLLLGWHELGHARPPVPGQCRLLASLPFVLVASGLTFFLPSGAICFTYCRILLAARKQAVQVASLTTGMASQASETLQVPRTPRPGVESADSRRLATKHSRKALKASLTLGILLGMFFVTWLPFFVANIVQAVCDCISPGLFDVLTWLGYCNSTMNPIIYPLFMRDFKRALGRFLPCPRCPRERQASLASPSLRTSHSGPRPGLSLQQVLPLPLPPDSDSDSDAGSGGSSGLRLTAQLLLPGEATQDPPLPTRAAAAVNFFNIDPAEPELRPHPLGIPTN
Data set [2] concerns A7R-transfected SK-N-MC human neuroblastoma cells. As to conditions: cited from earlier work; for Intracellular accumulation of the peptide: 100 nanomolar.
The conditions of data set [3]: human, in vivo; cited from earlier work.
Data set [4] has as its target T1, beta-secretase (Homo sapiens, UniProt P56817).
T1 construct: from tissue; host or cells: clinical-trial subjects (in vivo)
As to conditions: in vivo; cited from earlier work.

The conditions of data set [5]: over 20 epidemiological clinical trials; cited from earlier work.
For data set [6], the system named is SK-N-MC neurons. The data set is described as follows: Morphological scoring of SK-N-MC cells exposed to Abeta42 plus A7R compounds. Format: cell-based, human.
Data set [7] concerns SK-N-MC neurons. In words: Abeta42 immunocytochemistry: intracellular Abeta42 labeling in SK-N-MC cells exposed to Abeta42 plus A7R compounds. Format: cell-based, human.
For data set [8], the system named is ischemic brain. As to conditions: rat, in vivo; cited from earlier work.
In data set [9] the target is A7R (Rattus norvegicus, UniProt Q05941). The settings on record: rat receptors; read-out: Ki, binding to A7R; cited from earlier work.
A7R (Rattus norvegicus, UniProt Q05941), sequence (Q05941 23-502): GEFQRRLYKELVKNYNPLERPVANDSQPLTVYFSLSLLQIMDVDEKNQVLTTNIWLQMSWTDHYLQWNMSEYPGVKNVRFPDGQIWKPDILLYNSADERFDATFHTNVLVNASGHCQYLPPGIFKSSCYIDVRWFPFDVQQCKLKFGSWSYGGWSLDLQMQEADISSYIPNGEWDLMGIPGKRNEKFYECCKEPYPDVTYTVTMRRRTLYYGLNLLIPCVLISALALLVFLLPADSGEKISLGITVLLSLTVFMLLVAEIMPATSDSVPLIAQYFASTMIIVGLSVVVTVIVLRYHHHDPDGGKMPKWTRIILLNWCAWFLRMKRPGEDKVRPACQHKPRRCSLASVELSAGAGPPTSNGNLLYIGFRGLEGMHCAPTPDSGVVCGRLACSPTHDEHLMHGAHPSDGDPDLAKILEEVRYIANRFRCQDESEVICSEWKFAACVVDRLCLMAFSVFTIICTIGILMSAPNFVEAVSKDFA
Data set [10] has as its system Human neuroblastoma SK-N-MC cells, transfected with A7R. The settings on record: 100 nanomolar for 6 hours; cited from earlier work.
In data set [11] the target is A7R. The settings on record: guinea pig receptors; read-out: Ki, binding to A7R; cited from earlier work.
Data set [12] has as its system C57BL/6J mice. In words: CognitionWall discrimination learning test, 2-week study. Format: in vivo. The procedure: This 2-week study was comprised of 2 groups of C57BL/6J mice as outlined in Table 5. Mice were infused with 100 μl pertussis toxin (3.0×10−3 μg/μl in saline) or 100 μl saline into the tail vein according to Table 5 to affect the BBB. Subsequently, Abeta42 (100 μl of 6.9 μM in saline) was infused into the tail vein. Groups 1 and 2 received 2 cycles of Abeta42 treatment.
Deficits in learning behavior correlated with degenerating neurons in mice treated with pertussis toxin and Abeta42 as compared with untreated mice in the 2-week study. The CognitionWall discrimination learning test was used to test learning behaviors in the mice. Fifteen minutes before the start of the discrimination learning (DL) and reversal learning (RL) task at 16.30 h on the 3th light phase in the Phenotyper, the CognitionWall was placed in front of the reward dispenser spout. After placement, several free rewards were dispensed and standard chow was removed from the feeding station. Mice had to learn to earn their food (Dustless Precision Pellets, 14 mg) by going through the left hole in the wall for the next 2 days (DL1 and DL2). The middle and right hole were deemed incorrect holes and passing through these holes was without any consequences. During the subsequent 2 days, the rewarded hole was switched to the right hole (reversal learning; RL1 and RL2). During DL and RL, one reward was delivered for every fifth entry through the correct hole (FR5 schedule of reinforcement). Mice were not required to make 5 consecutive correct entries (i.e., no chaining requirement). […] Online display of the number of earned rewards was used to evaluate food intake during the experiment. Based on pilot experiments to quantify the number of food rewards required to maintain body weight, mice were fed extra reward pellets when they earn fewer than 100 rewards per day for 2 or more consecutive days. […]

Data set [13] concerns lipoprotein-associated phospholipase-A2. As to conditions: in vivo; cited from earlier work.
Data set [14] relates to amyloid. As to conditions: Alzheimer's disease subjects; Solanezumab: Phase 3, mild Alzheimer's disease; cited from earlier work.
amyloid, sequence (P05067 672-711): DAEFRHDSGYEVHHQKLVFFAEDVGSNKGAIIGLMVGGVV

T1 sequence (P56817 46-501): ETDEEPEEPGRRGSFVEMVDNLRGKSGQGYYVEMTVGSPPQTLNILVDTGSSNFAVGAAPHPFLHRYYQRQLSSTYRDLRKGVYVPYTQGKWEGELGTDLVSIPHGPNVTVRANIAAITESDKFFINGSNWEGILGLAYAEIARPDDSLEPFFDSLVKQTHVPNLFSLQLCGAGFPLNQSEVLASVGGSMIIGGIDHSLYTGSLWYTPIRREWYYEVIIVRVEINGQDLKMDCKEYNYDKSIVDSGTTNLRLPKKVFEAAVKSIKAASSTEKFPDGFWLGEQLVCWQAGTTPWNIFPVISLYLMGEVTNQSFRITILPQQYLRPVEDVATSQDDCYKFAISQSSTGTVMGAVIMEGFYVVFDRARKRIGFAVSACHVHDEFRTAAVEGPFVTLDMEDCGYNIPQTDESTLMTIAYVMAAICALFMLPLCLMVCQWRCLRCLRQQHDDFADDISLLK

In the case of `O=S(=O)(c1ccccc1)c1cnc2c(N3CCNCC3)cccc2c1` [Intepirdine], in data set [1], the “Goals of a pivotal trial” value was “failed to meet the goals of a pivotal trial”.
For Abeta40, in [2] (3 hours), the “Intracellular accumulation of the peptide” value was “little detectable accumulation”.
`CC(C)c1c(C(=O)Nc2ccccc2)c(-c2ccccc2)c(-c2ccc(F)cc2)n1CC[C@@H](O)C[C@@H](O)CC(=O)O` [Atorvastatin]: the Cognitive measures entry in [3] is “did not improve cognitive measures”.
Turning to `NC1=N[C@@]2(c3cc(NC(=O)c4ccc(F)cn4)ccc3F)COC[C@H]2CS1` [LY2886721], the “Reason for stopping the clinical studies” value in [4] is listed as “toxicity”.
`COc1ccc2c(c1)c(CC(=O)O)c(C)n2C(=O)c1ccc(Cl)cc1` [Indomethacin]: the “Risk of Alzheimer's disease” value in data set [5] is given as “reduce the risk of Alzheimer's disease”.
Consider `CN1CCCC1c1cccnc1` (stereo not drawn) [Nicotine], for which, in data set [6], the “Morphologic scores 2 hr” value came out at 2.7, the “Morphologic scores 4 hr” value was 2.8 and the “Morphologic scores 6 hr” value is 2.8. In addition, in [7], the “Abeta42 immunolabeling scores 2 hr” value is on record as 1.7 and the “Abeta42 immunolabeling scores 6 hr” value was found to be 0.3.
VEGF: in data set [8], the “Angiogenesis in the ischemic brain” value is recorded as “enhanced angiogenesis” and the Neurological recovery result was “improved neurological recovery”.
As for Abeta42, the inhibitory constant (Ki) (usually the dissociation constant of the complex between target and ligand, obtained from inhibition or displacement) in [9] was 4.1 pM; in data set [11], 5 pM. Further, the Cell death result in data set [10] is recorded as “cell death”. Further, the “Learning performance in words” value in [12] (2-week pilot study, 6 mice per group) is given as “did not impact learning impairment”. Besides, the “Entries to reach the learning criterion, group value” in [12] (2 NA scores estimated as ~500) is ~230 entries. The “Entries (entries to 80% correct learning criterion)” value in data set [12] (individual mouse, 2-week study, NA = too impaired to test, T1, T2 second Abeta42 dose most likely subcutaneous) is 307 and 130 and 180 and 264 and 134 and 370. Besides, the “Intracellular accumulation of the peptide” value in data set [2] (3 hours) is recorded as “prominent, irregularly shaped Abeta42-positive deposits”; in data set [2] (within 30 minutes) it was “some accumulation of Abeta42-positive material”.
With `CCN(CC)CCN(Cc1ccc(-c2ccc(C(F)(F)F)cc2)cc1)C(=O)Cn1c(SCc2ccc(F)cc2)nc(=O)c2c1CCC2` [Darapladib], in data set [13], the BBB leakage entry is listed as “reducing BBB leakage” and the Progression of atherosclerosis entry is on record as “blocked the progression of atherosclerosis”.
For the molecule `CC(C)Cc1ccc(C(C)C(=O)O)cc1` (stereo not drawn) [Ibuprofen], in data set [5], the “Risk of Alzheimer's disease” value is on record as “reduce the risk of Alzheimer's disease”.
Take Alpha-bungarotoxin: the “Morphologic scores 6 hr” value in [6] came to 2.5. In addition, in data set [7], the “Abeta42 immunolabeling scores 1 hr” value is recorded as 0/1, the “Abeta42 immunolabeling scores 2 hr” value was 1/0 and the “Abeta42 immunolabeling scores 4 hr” value is on record as 1/0. Further, the “Inhibition of Abeta42 accumulation in transfected cells” value in data set [2] is “inhibited Abeta42 accumulation”.
With “Solanezumab: yet another anti-amyloid antibody”, in [14], the “Clinical trial efficacy end points” value is on record as “failed to reach statistical significance”.
In the case of `c1cnc2cc3c(cc2n1)[C@@H]1CNC[C@H]3C1` [Varenicline], the “Protection of cells from Abeta42 toxicity (observed morphology)” value in data set [6] (cells treated with compound and Abeta42, similar at the other time points) is “protected from Abeta42 toxicity”.
